# Results reported in PMC7155171, “Probing the Open Global Health Chemical Diversity Library for Multistage-Active Starting Points for Next-Generation Antimalarials” (ACS Infectious Diseases, 2020).
# What was measured:
# [1] = system: P. berghei liver stage (PbLuc); assay: P. berghei luciferase liver stage (PbLuc) assay in HepG2-A16-CD81 hepatocytes; type: cell-based, Plasmodium berghei; conditions: Plasmodium berghei; for IC50: HepG2-A16-CD81, 12pt dose response, read-out: PbLuc 12pt dose response: IC50; for Emax: HepG2-A16-CD81, 48 h, 12pt dose response, maximum inhibition
# [2] = HepG2 cytotoxicity screening (CellTiter-Glo); conditions: human, uninfected HepG2-A16-CD81 (EGFP) hepatocytes
# [3] = system: HepG2-A16-CD81 hepatocytes; assay: HepG2 cytotoxicity screening (CellTiter-Glo); conditions: for HepG2 cytotoxicity 12pt dose response: Maximum inhibition (%): 12pt dose response
# [4] = molecular target: recombinant firefly luciferase (Photinus pyralis, UniProt P08659); assay: biochemical; conditions: dose response; for Emax: maximum inhibition, read-out: rLuc inhibition dose response: Maximum inhibition (%); for IC50: read-out: rLuc inhibition dose response: IC50
# recombinant firefly luciferase, sequence (P08659 whole entry): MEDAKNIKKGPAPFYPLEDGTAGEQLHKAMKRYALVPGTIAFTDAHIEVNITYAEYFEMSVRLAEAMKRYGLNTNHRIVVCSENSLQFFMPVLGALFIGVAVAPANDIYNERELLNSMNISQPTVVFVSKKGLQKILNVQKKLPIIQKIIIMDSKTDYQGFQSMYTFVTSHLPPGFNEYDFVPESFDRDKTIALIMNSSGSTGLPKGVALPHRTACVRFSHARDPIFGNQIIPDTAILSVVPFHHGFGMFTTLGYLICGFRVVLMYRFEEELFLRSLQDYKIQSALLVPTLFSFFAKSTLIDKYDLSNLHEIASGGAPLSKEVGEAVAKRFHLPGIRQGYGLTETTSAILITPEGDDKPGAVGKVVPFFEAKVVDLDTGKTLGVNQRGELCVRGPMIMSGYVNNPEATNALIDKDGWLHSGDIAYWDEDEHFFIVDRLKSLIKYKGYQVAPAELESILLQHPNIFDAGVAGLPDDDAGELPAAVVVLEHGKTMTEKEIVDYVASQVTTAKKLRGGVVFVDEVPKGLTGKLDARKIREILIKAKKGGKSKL
Structure (SMILES),IC50 [1] [µM],Emax [1] [%],IC50 [2] [µM],inhibition at 2 µM [2] [%],HepG2 cytotoxicity 12pt dose response: Maximum inhibition (%) [3] [%],Emax [4] [%],IC50 [4] [µM],HepG2 Cytotoxicity primary screen (2uM): % Inhibition [3] [%],"inhibition at 2 µM ([1]; HepG2-A16-CD81, primary screen, 2 uM) [%]",inhibition at 10 µM [2] [%]
O=C(c1ccc(Br)o1)N1CCN(Cc2ccc(OC(F)(F)F)cc2)CC1 [UCSD-0819339],9.24,97.7,> 25,0,57.1,10.9,> 25,–,–,–
CCc1nc(CN2CCN(c3ncnc4cc(F)ccc34)CC2)no1 [UCSD-0819439],2.76,95.7,6.37,13.2,64.7,3.14,> 25,–,–,–
COc1ccc(-c2nc(CN3CC(n4cc(C)cn4)C3)no2)cc1 [UCSD-0819446],11.2,82.5,> 25,–,1.19,6.87,> 25,-12.79,–,–
CC(NC(=O)c1cc(-c2cccc(Cl)c2)no1)C(=O)N1CCCC1 (centres unmarked) [UCSD-0819519],11,91.8,> 25,–,0.675,37.2,> 25,0.00,–,–
CC(=O)c1c(F)cccc1N1CCC(Cc2cccnc2)CC1 [UCSD-0819611],4.23,116,15.4,15.8,73,7.02,> 25,–,–,–
COc1cc(CN(C)C(=O)Cc2c(C)nn(C)c2C)ccc1OC(F)F [UCSD-0819780],2.11,80.1,> 25,7.57,55.1,6.77,> 25,–,–,–
CCc1ccc(-c2ncc3c(n2)N(C)CCN(CCN(C)C)C3=O)cc1 [UCSD-0824219],12.1,81.1,> 25,–,6.88,7.09,> 25,4.38,–,–
Cc1ccc(Sc2ccc(CN3CCC4(CCCNC4=O)C3)o2)cc1 (centres unmarked) [UCSD-0825128],14.7,95,> 25,–,8.34,21.8,> 25,-4.20,–,–
CC1(c2ccccc2)CCCN(Cc2cncn2C2CCCC2)C1 (centres unmarked) [UCSD-0827293],13.5,95.5,18.7,–,58,7.12,> 25,-6.73,–,–
Clc1ccccc1-c1cc(CNc2ncnc3c2CCNCC3)no1 [UCSD-0827811],13.6,93.4,> 25,–,49.9,12.2,> 25,-1.07,–,–
CC(C)CN1CCCC1c1ccc(C(=O)Nc2cccnc2)s1 (centres unmarked) [UCSD-0828121],9.26,–,> 25,3.83,5.88,38.6,> 25,–,–,–
Fc1ccc(N2CCCN(c3ccc(Cn4ccnc4)cn3)CC2)cc1 [UCSD-0828381],1.16,98.9,23.9,–,52.6,34.7,> 25,3.83,–,–
COc1ccc2cc(C3CN(C(=O)CCNC(C)=O)CCO3)ccc2c1 (centres unmarked) [UCSD-0829391],0.333,85.2,> 25,-3.5,2.45,67.5,9.9,–,-1.1,–
c1ccc(OCCNc2ncnc3sc4c(c23)CCNC4)cc1 [UCSD-0829760],9.15,73,> 25,-2.42,42.9,7.54,> 25,–,–,–
CC(=O)N1CCN(Cc2cccc3c2sc2ccccc23)CC(O)C1 (centres unmarked) [UCSD-0830872],5.87,91,> 25,6.03,10.8,15.6,> 25,–,–,–
CCc1cnc(N)nc1NC(C)c1ccc(C)c(C)c1 (centres unmarked) [UCSD-0831195],0.433,89.9,> 25,3.76,56,17.1,> 50,–,–,–
CNC(=O)CCC(=O)N1CCOC(c2ccc3cc(OC)ccc3c2)C1 (centres unmarked) [UCSD-0831800],0.000954,88.9,> 25,-0.85,1,66.4,23.5,–,–,3.9
COc1ccc(-c2cc(CNc3ncnc4c3CCNCC4)no2)cc1 [UCSD-0833048],10.2,91.8,> 25,–,49.3,0.184,> 25,4.02,–,–
CC(C)(CO)Nc1ccc(-c2nc(-c3ccccc3F)no2)cn1 [UCSD-0833103],< 0.000141,98.5,> 25,2.86,34.7,93.7,0.045,–,–,–
CC(Nc1ncnc2c1CCNC2)c1ccc2c(c1)CCCC2 (centres unmarked) [UCSD-0833335],9.75,79.1,18.4,–,57.6,12.6,> 25,0.57,–,–
Cc1cc(NC(=O)c2ccc(CN3CC[C@H](O)C3)cc2)ccc1F [UCSD-0834308],< 0.000282,104,> 50,7.88,10.3,100,< 0.0244,–,–,–
CCOC(=O)N1CCN(c2nc(CCN)nc3sc(C)c(C)c23)CC1 [UCSD-0834429],8.74,87.7,> 25,-5.69,28,5.96,> 25,–,–,-49.3
CCCc1cncnc1N1CCC(NCc2cc3ccccc3[nH]2)CC1 [UCSD-0834906],1.84,97.5,> 25,7.01,32.8,31.4,> 25,–,–,–
COc1cccc(-c2noc3c2CN(c2ncnc4c2CCC4)CC3)c1 [UCSD-0837523],5.79,84.4,8.51,-0.62,52,15.5,> 25,–,–,–
